# Values quoted from earlier work as cited in patent publication US20070281983A1, “Creatine analog prodrugs, compositions and uses thereof” (XenoPort, Inc., priority 2006, published 2007).
# Where two headings read alike, the source gives them in different places.
# Key:
# [1] = animals, diet containing up to 1% cyclocreatine
# [2] = not given; remark: listed apart in the source
# [3] = healthy volunteers, oral creatine administration
compound,measurement,setting,value
CN(CC(=O)O)C(=N)NP(=O)(O)O [creatine phosphate],adverse side effects,"patients with cardiac diseases, intravenous injection up to 8 gm/day",without adverse side effects
NC1=NCCN1CC(=O)O [cyclocreatine],adverse effects,[1],do not exhibit adverse effects
"CN(CC(=O)O)C(=N)N [creatine, Creatine]",overall increase in creatine phosphate levels,"[2]; creatine supplementation, typically takes weeks",< 50%
same,duration of increases in tissue creatine phosphate levels,[2]; following oral creatine supplementation,> 14 days
same,increase in cerebral creatine phosphate,[3],about 10%
CN(CC(=O)O)C(=N)N.O [creatine monohydrate],adverse side effects,"athletes and body builders, 2-3 gm/day",without adverse side effects
